Experimental data published in patent publication US20240300977A1, “INHIBITORS OF DNA-DEPENDENT PROTEIN KINASE AND COMPOSITIONS AND USES THEREOF” (Intellia Therapeutics, Inc., priority 2021, published 2024).

Tests used:
[1] = tested on: NK cells; test: GFP insertion at AAVS1 in NK cells, flow cytometry; assay type: cell-based, human; conditions: LNP + AAV, seven days
Method: NK cells were assessed for the impact of DNA protein kinase inhibitors (DNA-PKI) on indel and insertion rates. […] A subset of samples was also treated with AAV encoding a GFP coding sequence flanked by regions of homology to the AAVS1 edit site (SEQ ID NO: 16). NK cells were isolated from a commercially obtained leukopak using the EasySep Human NK Cell Isolation Kit ([…], Cat. No. 17955) according to the manufacturer's protocol. […] NK cells were plated at 50,000 cells per well in triplicate in OpTmizer supplemented as described above with DNA-PKI at concentrations indicated in Tables 10 and 11. […] For a subset of samples, AAV encoding GFP flanked by regions homologous to the AAVS1 edit site were added at a multiplicity of infection (MOI) of 600,000 genome copies following editing. At seven days post LNP composition treatment, cells were phenotyped by flow cytometry to measure GFP insertion rates. Briefly, NK cells were incubated with antibodies targeting CD3 (Biolegend, Cat. No. 317336) and CD56 (Biolegend, Cat. No. 318310). […] NK cells were gated on size, CD3/CD56 status, and GFP expression. High GFP-expressing cells were gated as targeted GFP […] locus and low GFP-expressing cells were gated as episomal retention.

[2] = tested on: T cells; test: Insertion percent in T cells of Example 17; assay type: cell-based, human; conditions: T cells from Example 12; FIG. 9B
Description: (§1) On day 8 post-editing, T cells from Example 12 from the untreated, unedited, Compound 3 and Compound 4 guides samples were collected, spun down and the pellets were directly used as input material for gDNA isolation using “Zymo Quick DNA/RNA Mag Beads Kit” (Zymo Cat. R2131). The UnIT structural variant characterization assay was applied to these gDNA samples. High molecular weight genomic DNA is simultaneously fragmented and sequence-tagged (‘tagmented’) with the Tn5 transposase and an adapter with a partial Illumina P5 sequence and a 12 bp unique molecular identifier (UMI). Two sequential PCRs using a primer to P5 and hemi-nested gene specific primers (GSP) imparting the Illumina the P7 sequence to create two Illumina compatible NGS libraries per sample (Illumina, Ref 15033624). Sequencing across both directions of the CRISPR/Cas9 targeted cut site with the two libraries allows the inference and quantification of structural variants in DNA repair outcomes after genome editing. If the two fragments were aligned to different chromosomes, the SV was classified as an “inter-chromosomal translocation.” The magnitude of structural variation was shown in FIG. 9A and Table 18.

[3] = tested on: NK cells; test: Percent editing at AAVS1 in NK cells by NGS; assay type: cell-based, human
Method: Genomic DNA was extracted using QuickExtract™ DNA Extraction Solution (Lucigen, Cat. QE09050) according to manufacturer's protocol.
To quantitatively determine the efficiency of editing at the target location in the genome, next generation sequencing was utilized to identify the presence of insertions and deletions introduced by gene editing. […] Primer sequence design was done as is standard in the field.
Additional PCR was performed according to the manufacturer's protocols (Illumina) to add chemistry for sequencing. The amplicons were sequenced on an Illumina MiSeq instrument. The reads were aligned to the human (e.g., hg38) reference genome after eliminating those having low quality scores. The resulting files containing the reads were mapped to the reference genome (BAM files), where reads that overlapped the target region of interest were selected and the number of wild-type reads versus the number of reads which contain an insertion or deletion (“indel”) was calculated.
The editing percentage (e.g., the “editing efficiency” or “percent editing”) is defined as the total number of sequence reads with insertions or deletions (“indels”) over the total number of sequence reads, including wild type.

[4] = tested on: TRAC; conditions: human
[5] = tested on: T cells; test: Off-target structural variation by UnIT; assay type: cell-based, human; conditions: T cells from Example 12, day 8 post-editing; TRAC sgRNA G013006
Description: as §1

[6] = tested on: T cells; test: TRAC LNP editing and GFP insertion in activated T cells with DNA-PK inhibitors, flow cytometry; conditions: GFP positive of the CD3 negative T cells, day 5 post-edit
[7] = tested on: T cells; test: SpyCas9 TRAC editing (indel) in T cells by NGS with or without Compound 4; assay type: cell-based, human; conditions: day 4 NGS
Method: Upon thaw, T cells were plated at a density of 1.0×10^6 cells/mL in T cell growth media (TCGM) composed of CTS OpTmizer T Cell Expansion SFM and T Cell Expansion Supplement (ThermoFisher Cat. A1048501), 5% human AB serum (GeminiBio, Cat. 100-512) 1× Penicillin-Streptomycin, 1× Glutamax, 10 mM HEPES, 200 U/mL recombinant human interleukin-2 (Peprotech, Cat. 200-02), 5 ng/ml recombinant human interleukin 7 (Peprotech, Cat. 200-07), and 5 ng/mL recombinant human interleukin 15 (Peprotech, Cat. 200-15). T cells were rested in this media for 24 hours, at which time they were activated with T Cell TransAct™, human reagent (Miltenyi, Cat. 130-111-160) added at a 1:100 ratio by volume.
48 hours post-activation, T cells were harvested, centrifuged at 500 g for 5 min, and resuspended at a concentration of 6.41×10^5 T cells/mL in T cell plating media (TCPM): a serum-free version of TCGM containing 400 U/mL recombinant human interleukin-2 (Peprotech, Cat. 200-02), 10 ng/mL recombinant human interleukin 7 (Peprotech, Cat. 200-07), and 10 ng/mL recombinant human interleukin 15 (Peprotech, Cat. 200-15). 50 μL of T cells in TCPM (3.2×10^4 T cells) were added per well to be treated in flat-bottom 96-well plates.
LNPs were generated as described in Example 1 at a ratio of 50/38.5/10/1.5 (Lipid A/cholesterol/DSPC/PEG2k-DMG).
Mix “A” was serially diluted 1:2 in TCTM, and mixed 1:1 by volume with mix “B”. 25 μL of the resulting solution was added to 3.2×10^4 T cells in 96-well plates.
Next, a repair template in the form of an adeno-associated virus (AAV) encoding the HD3 TCR (SEQ ID NO: 18 was diluted in TCTM to 3.84×10^11 genome copies/mL in the presence or absence of Compound 4 diluted to 2 μM. 25 μL of the resulting solution was added to T cells that were treated with LNPs in the prior step. To enable editing assessments by NGS without the interference of repair templates, an arm of this experiment received 25 μL of TCTM with or without Compound 4 diluted to 2 μM in the absence of AAVs.
Following the addition of LNPs, repair templates and Compound 4, T cells were incubated at 37° C. for 48 hours, at which time T cells were centrifuged at 500 g for 5 min, resuspended in 200 μL of TCGM and returned to the incubator.

[8] = tested on: TRBC; test: Off-target site validation, rhAmpSeq; conditions: gRNA G016239 targeting TRBC; of 92 off-target sites; with the named DNA-PKI or none

Question: Which results are given for `Cc1cc2ncnn2cc1Nc1ncc2c(n1)n(C1CCC3(CC1)CC3)c(=O)n2C` [Compound 4, 7-methyl-2-((7-methyl-[1,2,4]triazolo[1,5-a]pyridin-6-yl)amino)-9-(spiro[2.5]octan-6-yl)-7,9-dihydro-8H-purin-8-one]?
Answer: Percent of NK cells with high GFP expression (Mean) ([1]; DNA-PKI 0.125 uM): 88.10%; Percent of NK cells with high GFP expression (Mean) ([1]; DNA-PKI 0.5 uM): 90.27%; Insertion Percent (Average) [2]: 67.82%; Mean percent editing at AAVS1 ([3]; DNA-PKI 0.125 uM): 96.77%; Mean percent editing at AAVS1 ([3]; DNA-PKI 0.5 uM): 97.67%; Sites Validated [4]: 0; Unintended Structural Variance (Average) [5]: 1.46%; Mean % CD3^−/GFP+ Cells (n = 3) ([6]; compound 0.0625 uM): 58.13%; Mean % CD3^−/GFP+ Cells (n = 3) ([6]; compound 1 uM): 80.07%; Mean TRAC Editing % ([7]; sgRNA 0 μg/mL, Spy Cas9 + Compound 4): 0.20%; Mean TRAC Editing % ([7]; sgRNA 0.026 μg/mL, Spy Cas9 + Compound 4): 48.55%; Mean TRAC Editing % ([7]; sgRNA 0.052 μg/mL, Spy Cas9 + Compound 4): 63.45%; Mean TRAC Editing % ([7]; sgRNA 0.104 μg/mL, Spy Cas9 + Compound 4): 79.25%; Mean TRAC Editing % ([7]; sgRNA 0.209 μg/mL, Spy Cas9 + Compound 4): 89.00%; Mean TRAC Editing % ([7]; sgRNA 0.418 μg/mL, Spy Cas9 + Compound 4): 94.45%; Mean TRAC Editing % ([7]; sgRNA 0.835 μg/mL, Spy Cas9 + Compound 4): 96.15%; Mean TRAC Editing % ([7]; sgRNA 1.67 μg/mL, Spy Cas9 + Compound 4 (2 μM stock, 25 μL added)): 96.10%; Sites Validated [8]: 0
